According to ChEMBL document CHEMBL1201862, “PubChem BioAssay data set” (2004):
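Exposure lasted 48 hours, with cells grown in 96-well plates and compounds tested at five concentrations. The concentration for 50% growth inhibition is given as GI50.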 Activity calls are given as the source filed them. Rule as the data show it: active = GI50 up to about 1.1 µM and inactive = higher.

Legend:
Assay in all cases: NCI-60 cell line screen, 48 h
TK-10 = system: TK-10
KM12 = system: KM12
NCI-H460 = system: NCI-H460
Malme-3M = system: Malme-3M
A549 = system: A549
K562 = system: K562
RXF 393 = system: RXF 393
HCC 2998 = system: HCC 2998
ACHN = system: ACHN
SF-539 = system: SF-539
DMS-273 = system: DMS-273
M14 = system: M14
CAKI-1 = system: CAKI-1
IGROV-1 = system: IGROV-1
SN12C = system: SN12C
NCI-H226 = system: NCI-H226
SF-268 = system: SF-268
SR = system: SR
SNB-75 = system: SNB-75
HCT-116 = system: HCT-116
UACC-62 = system: UACC-62
HL-60 = system: HL-60
HOP-92 = system: HOP-92
U-251 = system: U-251
A498 = system: A498
HCT-15 = system: HCT-15
SNB-19 = system: SNB-19
LOX IMVI = system: LOX IMVI
KM-20L2 = system: KM-20L2
RPMI-8226 = system: RPMI-8226
MOLT-4 = system: MOLT-4
XF498 = system: XF498
UO-31 = system: UO-31
EKVX = system: EKVX
SW-620 = system: SW-620
DLD-1 = system: DLD-1
HT-29 = system: HT-29
LXFL 529 = system: LXFL 529
HOP-62 = system: HOP-62
SK-OV-3 = system: SK-OV-3
UACC-257 = system: UACC-257
OVCAR-5 = system: OVCAR-5
SF-295 = system: SF-295
CCRF-CEM = system: CCRF-CEM
SNB-78 = system: SNB-78
786-0 = system: 786-0
OVCAR-4 = system: OVCAR-4
M19-MEL = system: M19-MEL
DMS-114 = system: DMS-114
HOP-18 = system: HOP-18
NCI-H522 = system: NCI-H522
NCI-H23 = system: NCI-H23
OVCAR-8 = system: OVCAR-8
SK-MEL-2 = system: SK-MEL-2
SK-MEL-5 = system: SK-MEL-5
SK-MEL-28 = system: SK-MEL-28
COLO 205 = system: COLO 205
OVCAR-3 = system: OVCAR-3
NCI/ADR-RES = system: NCI/ADR-RES
MCF7 = system: MCF7

`CN(C)C(=S)/N=c1\ss/c(=N\S(=O)(=O)c2ccccc2)n1C` was tested, and the GI50 (TK-10) was > 100 µM (inactive), the GI50 (KM12) was > 100 µM (inactive) and the GI50 (NCI-H460) was > 100 µM (inactive). For the same compound, the GI50 (Malme-3M) was > 100 µM (inactive), the GI50 (A549) was > 100 µM (inactive) and the GI50 (K562) was > 100 µM (inactive). The GI50 (RXF 393) was > 100 µM (inactive), the GI50 (HCC 2998) was > 100 µM (inactive) and the GI50 (ACHN) was > 100 µM (inactive). The GI50 (SF-539) was > 100 µM (inactive), the GI50 (DMS-273) was > 100 µM (inactive) and the GI50 (M14) was > 100 µM (inactive). For the same compound, the GI50 (CAKI-1) was > 100 µM (inactive), the GI50 (IGROV-1) was > 100 µM (inactive) and the GI50 (SN12C) was > 100 µM (inactive). For the same compound, the GI50 (NCI-H226) was > 100 µM (inactive), the GI50 (SF-268) was > 100 µM (inactive) and the GI50 (SR) was > 100 µM (inactive). The GI50 (SNB-75) was 39.2 µM (inactive), the GI50 (HCT-116) was > 100 µM (inactive) and the GI50 (UACC-62) was > 100 µM (inactive). The GI50 (HL-60) was > 100 µM (inactive), the GI50 (HOP-92) was > 100 µM (inactive) and the GI50 (U-251) was > 100 µM (inactive). For the same compound, the GI50 (A498) was > 100 µM (inactive), the GI50 (HCT-15) was over 100 µM and the GI50 (SNB-19) was > 100 µM (inactive). For the same compound, the GI50 (LOX IMVI) was > 100 µM (inactive), the GI50 (KM-20L2) was > 100 µM (inactive) and the GI50 (RPMI-8226) was > 100 µM (inactive). For the same compound, the GI50 (MOLT-4) was > 100 µM (inactive), the GI50 (XF498) was > 100 µM (inactive) and the GI50 (UO-31) was > 100 µM (inactive). The GI50 (EKVX) was > 100 µM (inactive), the GI50 (SW-620) was > 100 µM (inactive) and the GI50 (DLD-1) was > 100 µM (inactive). For the same compound, the GI50 (HT-29) was > 100 µM (inactive), the GI50 (LXFL 529) was > 100 µM (inactive) and the GI50 (HOP-62) was > 100 µM (inactive). The GI50 (SK-OV-3) was > 100 µM (inactive), the GI50 (UACC-257) was > 100 µM (inactive) and the GI50 (OVCAR-5) was > 100 µM (inactive). The GI50 (SF-295) was > 100 µM (inactive), the GI50 (CCRF-CEM) was > 100 µM (inactive) and the GI50 (SNB-78) was > 100 µM (inactive). For the same compound, the GI50 (786-0) was > 100 µM (inactive), the GI50 (OVCAR-4) was > 100 µM (inactive) and the GI50 (M19-MEL) was > 100 µM (inactive). For the same compound, the GI50 (DMS-114) was > 100 µM (inactive), the GI50 (HOP-18) was > 100 µM (inactive) and the GI50 (NCI-H522) was > 100 µM (inactive). The GI50 (NCI-H23) was > 100 µM (inactive), the GI50 (OVCAR-8) was > 100 µM (inactive) and the GI50 (SK-MEL-2) was > 100 µM (inactive). The GI50 (SK-MEL-5) was > 100 µM (inactive) and the GI50 (SK-MEL-28) was > 100 µM (inactive).

For `Nc1ncnc2c1ncn2C1OC(CSCC(F)(F)F)C(O)C1O` (stereo not given), the GI50 (TK-10) was > 100 µM (inactive), the GI50 (KM12) was > 100 µM (inactive) and the GI50 (NCI-H460) was > 100 µM (inactive). For the same compound, the GI50 (Malme-3M) was > 100 µM (inactive), the GI50 (A549) was > 100 µM (inactive) and the GI50 (K562) was > 100 µM (inactive). The GI50 (RXF 393) was > 100 µM (inactive), the GI50 (HCC 2998) was > 100 µM (inactive) and the GI50 (ACHN) was > 100 µM (inactive). The GI50 (SF-539) was > 100 µM (inactive), the GI50 (DMS-273) was > 100 µM (inactive) and the GI50 (M14) was > 100 µM (inactive). The GI50 (CAKI-1) was > 100 µM (inactive), the GI50 (IGROV-1) was > 100 µM (inactive) and the GI50 (SN12C) was > 100 µM (inactive). For the same compound, the GI50 (NCI-H226) was > 100 µM (inactive), the GI50 (SF-268) was > 100 µM (inactive) and the GI50 (SR) was > 100 µM (inactive). For the same compound, the GI50 (SNB-75) was > 100 µM (inactive), the GI50 (HCT-116) was > 100 µM (inactive) and the GI50 (UACC-62) was > 100 µM (inactive). For the same compound, the GI50 (HL-60) was > 100 µM (inactive), the GI50 (HOP-92) was > 100 µM (inactive) and the GI50 (U-251) was > 100 µM (inactive). For the same compound, the GI50 (HCT-15) was over 100 µM, the GI50 (SNB-19) was > 100 µM (inactive) and the GI50 (LOX IMVI) was > 100 µM (inactive). For the same compound, the GI50 (KM-20L2) was > 100 µM (inactive), the GI50 (RPMI-8226) was > 100 µM (inactive) and the GI50 (MOLT-4) was > 100 µM (inactive). For the same compound, the GI50 (XF498) was > 100 µM (inactive), the GI50 (COLO 205) was > 100 µM (inactive) and the GI50 (UO-31) was > 100 µM (inactive). For the same compound, the GI50 (EKVX) was > 100 µM (inactive), the GI50 (SW-620) was > 100 µM (inactive) and the GI50 (DLD-1) was > 100 µM (inactive). The GI50 (HT-29) was > 100 µM (inactive), the GI50 (LXFL 529) was > 100 µM (inactive) and the GI50 (HOP-62) was > 100 µM (inactive). For the same compound, the GI50 (SK-OV-3) was > 100 µM (inactive), the GI50 (UACC-257) was > 100 µM (inactive) and the GI50 (OVCAR-5) was > 100 µM (inactive). The GI50 (SF-295) was > 100 µM (inactive), the GI50 (SNB-78) was > 100 µM (inactive) and the GI50 (786-0) was > 100 µM (inactive). The GI50 (OVCAR-4) was > 100 µM (inactive), the GI50 (M19-MEL) was > 100 µM (inactive) and the GI50 (HOP-18) was > 100 µM (inactive). The GI50 (NCI-H522) was 45 µM (inactive), the GI50 (NCI-H23) was > 100 µM (inactive) and the GI50 (OVCAR-8) was > 100 µM (inactive). For the same compound, the GI50 (SK-MEL-2) was > 100 µM (inactive), the GI50 (OVCAR-3) was > 100 µM (inactive) and the GI50 (SK-MEL-5) was > 100 µM (inactive). For the same compound, the GI50 (SK-MEL-28) was > 100 µM (inactive).

For `CC(=O)Nc1cccc(/N=N/N(C)C)c1`, the GI50 (KM12) was > 100 µM (inactive), the GI50 (NCI-H460) was > 100 µM (inactive) and the GI50 (Malme-3M) was > 100 µM (inactive). For the same compound, the GI50 (A549) was > 100 µM (inactive), the GI50 (K562) was 98.4 µM (inactive) and the GI50 (RXF 393) was > 100 µM (inactive). The GI50 (HCC 2998) was > 100 µM (inactive), the GI50 (SF-539) was > 100 µM (inactive) and the GI50 (DMS-273) was > 100 µM (inactive). For the same compound, the GI50 (CAKI-1) was > 100 µM (inactive), the GI50 (IGROV-1) was > 100 µM (inactive) and the GI50 (SN12C) was > 100 µM (inactive). For the same compound, the GI50 (NCI-H226) was > 100 µM (inactive), the GI50 (SF-268) was > 100 µM (inactive) and the GI50 (SNB-75) was > 49.3 µM (inactive). For the same compound, the GI50 (HCT-116) was > 100 µM (inactive), the GI50 (UACC-62) was > 100 µM (inactive) and the GI50 (HL-60) was > 100 µM (inactive). For the same compound, the GI50 (HOP-92) was > 100 µM (inactive), the GI50 (U-251) was > 100 µM (inactive) and the GI50 (A498) was > 100 µM (inactive). For the same compound, the GI50 (HCT-15) was over 100 µM, the GI50 (SNB-19) was > 100 µM (inactive) and the GI50 (NCI/ADR-RES) was > 100 µM (inactive). For the same compound, the GI50 (LOX IMVI) was > 100 µM (inactive), the GI50 (KM-20L2) was > 100 µM (inactive) and the GI50 (RPMI-8226) was > 100 µM (inactive). The GI50 (MOLT-4) was > 100 µM (inactive), the GI50 (XF498) was > 100 µM (inactive) and the GI50 (COLO 205) was > 100 µM (inactive). The GI50 (UO-31) was > 100 µM (inactive), the GI50 (EKVX) was > 100 µM (inactive) and the GI50 (SW-620) was > 100 µM (inactive). For the same compound, the GI50 (DLD-1) was > 31.6 µM (inactive), the GI50 (HT-29) was > 100 µM (inactive) and the GI50 (MCF7) was > 100 µM (inactive). The GI50 (HOP-62) was > 100 µM (inactive), the GI50 (SK-OV-3) was > 100 µM (inactive) and the GI50 (UACC-257) was > 100 µM (inactive). The GI50 (OVCAR-5) was > 100 µM (inactive), the GI50 (SF-295) was > 63.8 µM (inactive) and the GI50 (CCRF-CEM) was > 100 µM (inactive). For the same compound, the GI50 (SNB-78) was > 100 µM (inactive), the GI50 (OVCAR-4) was > 100 µM (inactive) and the GI50 (M19-MEL) was > 100 µM (inactive). The GI50 (DMS-114) was > 100 µM (inactive), the GI50 (HOP-18) was > 100 µM (inactive) and the GI50 (NCI-H522) was > 100 µM (inactive). The GI50 (NCI-H23) was > 100 µM (inactive), the GI50 (OVCAR-8) was > 100 µM (inactive) and the GI50 (SK-MEL-2) was > 100 µM (inactive). For the same compound, the GI50 (OVCAR-3) was > 100 µM (inactive), the GI50 (SK-MEL-5) was > 100 µM (inactive) and the GI50 (SK-MEL-28) was > 95.3 µM (inactive).
